Results: PMC9322451 (Clinical Pharmacology in Drug Development, 2022)
Like-named read-outs stand apart in the source and are kept apart here.

Tests used:
[1] = Phase 1 part A: PK after single and multiple once-daily oral doses; format: in vivo, human; conditions: for half-life / Tmax / AUC / AUC(0-inf) / AUC(0-t) / Cmax: human, plasma, po; for half-life / AUC / AUC(0-inf) / AUC(0-t) / Cmax: mean (CV%); for half-life: read-out: t1/2 (converted); for Tmax: median (range), read-out: Tmax
Procedure: The study was conducted sequentially in 2 parts. […] Eligible participants were admitted to the clinical unit for single‐dose evaluation from days −2 to 2 and from days 29 to 31 for steady‐state PK and safety evaluation. Participants self‐administered daily doses after an overnight fast of at least 10 hours on days 4 to 30, with outpatient visits on days 3, 4, 7, 14, 21, 32, 33, and 61 (Figure S1).
For part A, blood samples for PK assessments were collected following administration on days 1 and 30 at 0 (predose), 0.5, 0.75, 1, 1.5, 2, 3, 4, 8, 12, 24, 48, and 72 hours after dosing. In addition, predose PK samples were collected on days 4, 7, 14, and 21. PK parameters following single and multiple once‐daily dosing were evaluated using noncompartmental analysis, including the AUC over a dosing interval (AUCτ), AUC from time 0 to the last time with quantifiable concentration (AUClast), AUC from time 0 to infinite time (AUC∞), maximum plasma concentration (Cmax), minimum plasma concentration, time to maximum plasma concentration (tmax), terminal elimination half‐life (t1/2), apparent total drug clearance following oral administration (CL/F), and predose concentration.
All statistical analyses were performed using SAS version 9.3 or higher (SAS Institute Inc., Cary, North Carolina). Analysis of PK data was performed using WinNonlin Professional Software version 8.0 or higher (Certara, LP, Princeton, New Jersey). […] Categorical data were summarized by race and treatment group in terms of number of participants with data at relevant time points, frequency counts, and percentages. PK concentrations below the limit of quantification (BLQ) at time 0 on days 1 and 30 were considered 0. Postdose BLQ data were considered missing for PK parameter calculation. For mean concentrations and graphic presentation, all BLQ data were imputed as 0.

[2] = parameters: method as in unpublished data; conditions: healthy adults; ref unpublished data; cited from earlier work
CYP2C8 = test system: CYP2C8; parameters: method as in unpublished data; conditions: ref unpublished data; cited from earlier work
CYP2E1 = test system: CYP2E1; parameters: method as in unpublished data; conditions: ref unpublished data; cited from earlier work
neutrophil elastase = conditions: 10 and 25 mg, patients with non–cystic fibrosis bronchiectasis, WILLOW study; cited from earlier work
[3] = 10 mg, Day 30, 10 mg once daily, Japanese
[4] = 10 mg, Day 30, 10 mg once daily, White
[5] = 25 mg, Day 30, 25 mg once daily, Japanese
[6] = 25 mg, Day 30, 25 mg once daily, White
[7] = 40 mg, Day 30, 40 mg once daily, Japanese
[8] = 40 mg, Day 30, 40 mg once daily, White

Cn1c(=O)oc2ccc(-c3ccc(C[C@@H](C#N)NC(=O)[C@@H]4CNCCCO4)cc3)cc21 [Brensocatib]
half-life [1, 3]: 22.5 h | Tmax [1, 3]: 1.26 h | AUC [1, 4]: 1180 ng·h/mL | AUC(0-inf) [1, 4]: 2540 ng·h/mL | AUC(0-t) [1, 4]: 2100 ng·h/mL | Cmax [1, 4]: 89.5 ng/mL | half-life [1, 4]: 28.1 h | Tmax [1, 4]: 1.02 h | AUC ([1]; 25 mg, Day 1, 25 mg, Japanese): 2010 ng·h/mL | AUC(0-inf) ([1]; 25 mg, Day 1, 25 mg, Japanese): 3390 ng·h/mL | AUC(0-t) ([1]; 25 mg, Day 1, 25 mg, Japanese): 3040 ng·h/mL | Cmax ([1]; 25 mg, Day 1, 25 mg, Japanese): 209 ng/mL | half-life ([1]; 25 mg, Day 1, 25 mg, Japanese): 21.7 h | Tmax ([1]; 25 mg, Day 1, 25 mg, Japanese): 1.5 h | AUC ([1]; 25 mg, Day 1, 25 mg, White): 1720 ng·h/mL | AUC(0-inf) ([1]; 25 mg, Day 1, 25 mg, White): 3200 ng·h/mL | AUC(0-t) ([1]; 25 mg, Day 1, 25 mg, White): 2810 ng·h/mL | Cmax ([1]; 25 mg, Day 1, 25 mg, White): 161 ng/mL | half-life ([1]; 25 mg, Day 1, 25 mg, White): 24.5 h | Tmax ([1]; 25 mg, Day 1, 25 mg, White): 1.35 h | AUC [1, 5]: 4170 ng·h/mL | AUC(0-inf) [1, 5]: 7890 ng·h/mL | AUC(0-t) [1, 5]: 6890 ng·h/mL | Cmax [1, 5]: 301 ng/mL | half-life [1, 5]: 23.3 h | Tmax [1, 5]: 1.75 h | AUC [1, 6]: 3870 ng·h/mL | AUC(0-inf) [1, 6]: 8160 ng·h/mL | AUC(0-t) [1, 6]: 6720 ng·h/mL | Cmax [1, 6]: 265 ng/mL | half-life [1, 6]: 28.6 h | Tmax [1, 6]: 1.02 h | AUC ([1]; 40 mg, Day 1, 40 mg, Japanese): 2660 ng·h/mL | AUC(0-inf) ([1]; 40 mg, Day 1, 40 mg, Japanese): 4580 ng·h/mL | AUC(0-t) ([1]; 40 mg, Day 1, 40 mg, Japanese): 4040 ng·h/mL | Cmax ([1]; 40 mg, Day 1, 40 mg, Japanese): 245 ng/mL | half-life ([1]; 40 mg, Day 1, 40 mg, Japanese): 23.2 h | Tmax ([1]; 40 mg, Day 1, 40 mg, Japanese): 1.5 h | AUC ([1]; 40 mg, Day 1, 40 mg, White): 3420 ng·h/mL | AUC(0-inf) ([1]; 40 mg, Day 1, 40 mg, White): 5930 ng·h/mL | AUC(0-t) ([1]; 40 mg, Day 1, 40 mg, White): 5300 ng·h/mL | Cmax ([1]; 40 mg, Day 1, 40 mg, White): 328 ng/mL | half-life ([1]; 40 mg, Day 1, 40 mg, White): 22.1 h | Tmax ([1]; 40 mg, Day 1, 40 mg, White): 1.27 h | AUC [1, 7]: 4010 ng·h/mL | AUC(0-inf) [1, 7]: 7110 ng·h/mL | AUC(0-t) [1, 7]: 6400 ng·h/mL | Cmax [1, 7]: 334 ng/mL | half-life [1, 7]: 21.9 h | Tmax [1, 7]: 1.03 h | AUC [1, 8]: 6470 ng·h/mL | AUC(0-inf) [1, 8]: 12200 ng·h/mL | AUC(0-t) [1, 8]: 10600 ng·h/mL | Cmax [1, 8]: 467 ng/mL | half-life [1, 8]: 23.6 h | Tmax [1, 8]: 1.49 h | accumulation in maximum plasma concentration and AUC at steady state ([1]; once-daily dosing): ≈ 2 fold | Dose‐normalized Cmax lower in Japanese than in White participants ([1]; pooled dose groups): 19.1% | dose‐normalized AUCs lower in Japanese than in White participants ([1]; pooled dose groups): ≈ 25.6% | excreted in urine as unchanged [2]: ≈ 20% | CYP inhibition (CYP2C8): no effect | CYP inhibition (CYP2E1): no effect | effect on neutrophil elastase and clinical outcomes (neutrophil elastase): reduced neutrophil elastase and improved clinical outcomes
